Reference: ChEMBL document CHEMBL4321846, “Discovery of a Potent and Selective Oral Inhibitor of ERK1/2 (AZD0364) That Is Efficacious in Both Monotherapy and Combination Therapy in Models of Nonsmall Cell Lung Cancer (NSCLC)” (J Med Chem, 2019)
Active and inactive are the calls of the source. The rule behind the calls is not given here.

Experiments:
[1] = Fraction unbound in mouse plasma; format: ADME, cell-free
[2] = target: T1, Mitogen-activated protein kinase 1 (Homo sapiens, UniProt P28482)
[3] = target: T1, Mitogen-activated protein kinase 1; remark: listed apart in the source
[4] = target: T1, Mitogen-activated protein kinase 1; assay: Inhibition of MEK U911-activated ERK2 (unknown origin) using ERKtide as substrate preincubated for 20 mins followed by substrate addition in presence of ATP at Km concentration after 20 mins by rapidfire mass spectrometry analysis
Mus musculus = assay: Reduction in phosphorylated RSK level in athymic Nude-Foxn1nu mouse xenografted with human Calu6 cells expressing KRAS Q61K mutant at 25 mg/kg, po qd adminstered for 21 days and measured after 6 hrs post dose by Western blot analysis relative to control; format: functional; conditions: Calu-6, po
[5] = target: Dual specificity mitogen-activated protein kinase kinase 1 (Homo sapiens) (UniProt Q02750); assay: Inhibition of recombinant full length His-tagged human MEK1 expressed in baculovirus expression system at > 10 uM
[6] = target: Voltage-gated inwardly rectifying potassium channel KCNH2 (Homo sapiens, UniProt Q12809)
[7] = Fraction unbound in dog plasma; format: ADME, cell-free, Canis lupus familiaris
[8] = target: Cyclin-dependent kinase 5/CDK5 activator 1 (Homo sapiens) (UniProt Q00535+Q15078); assay: Inhibition of recombinant full length human GST/His-tagged CDK5/p25 expressed in baculovirus expression system at 1 uM relative to control
[9] = target: T1, Mitogen-activated protein kinase 1; assay: Binding affinity to MEK-activated phosphorylated biotinylated ERK2 (unknown origin) by SPR analysis
[10] = Volume of distribution at steady state in rat; format: ADME; conditions: in vivo, read-out: Vdss
Calu-6 = assay: Antitumor activity against human Calu6 cells expressing KRAS Q61K mutant xenografted in athymic Nude-Foxn1nu mouse assessed as tumor growth inhibition at 15 mg/kg, po qd adminstered for 21 days and measured twice per week by caliper method relative to control; format: functional; conditions: Calu-6, po, 504 h, read-out: TGI
A-375 = assay: Antiproliferative activity at human A375 cells expressing BRAF V600E mutant assessed as growth inhibition; format: functional
[11] = target: Cyclin-dependent kinase 5/CDK5 activator 1 (Homo sapiens, UniProt Q00535); assay: Inhibition of recombinant full length human GST/His-tagged CDK5/p25 expressed in baculovirus expression system
[12] = target: T1, Mitogen-activated protein kinase 1; remark: listed apart in the source
[13] = Oral bioavailability in rat; format: ADME, organism-based; conditions: in vivo
[14] = target: Mitogen-activated protein kinase kinase kinase 8 (Homo sapiens) (UniProt P41279); assay: Inhibition of recombinant GST-tagged human COT catalytic domain expressed in baculovirus expression system at 1 uM by GST-tagged full length human inactive ERK2 expressed in baculovirus expression system coupled cascade assay relative to control
A549 = assay: Antitumor activity against human A549 cells harboring KRAS […] mutant xenografted in athymic Nude-Foxn1nu mouse assessed as tumor regression at 25 mg/kg, po bid adminstered for 21 days and measured twice per week in presence of selumetinib by caliper method relative to control; format: functional
[15] = target: Dual specificity mitogen-activated protein kinase kinase 2 (Homo sapiens) (UniProt P36507); assay: Inhibition of recombinant full length his-tagged human MEK2 expressed in baculovirus expression system at 1 uM by GST-tagged full length human inactive ERK2 expressed in baculovirus expression system coupled cascade assay relative to control
[16] = target: T2, Mitogen-activated protein kinase; ERK1/ERK2 (Homo sapiens, UniProt P27361+P28482); assay: Inhibition of ERK1/2 in human A375 cells assessed as inhibition of ERK phosphorylation after 2 hrs; format: cell-based
[17] = Fraction unbound in human plasma; format: ADME, cell-free
[18] = target: NUAK family SNF1-like kinase 1 (Homo sapiens, UniProt O60285); assay: Inhibition of recombinant full length human His-tagged ARK5 expressed in baculovirus expression system
[19] = target: T2, Mitogen-activated protein kinase; ERK1/ERK2; assay: Inhibition of ERK1/2 in human A375 cells assessed as inhibition of RSK phosphorylation after 2 hrs; format: cell-based
[20] = Half life in po dosed rat; format: ADME, organism-based; conditions: in vivo
[21] = target: Mitogen-activated protein kinase 15 (Homo sapiens) (UniProt Q8TD08); assay: Inhibition of recombinant human N-terminal 4xFLAG-tagged/C-terminal His8-fused ERK7 N-terminal domain (M1 to R354 residues) expressed in Sf9 insect cells at 1 uM relative to control
[22] = tested on: RAF proto-oncogene serine/threonine-protein kinase (Homo sapiens), P04049 [Y340D,Y341D]; assay: Inhibition of recombinant human GST-tagged c-RAF1 Y340D/Y341D mutant catalytic domain expressed in baculovirus expression system at 1 uM by GST-tagged full length human inactive ERK2 expressed in baculovirus expression system coupled cascade assay relative to control
[23] = target: Cyclin-dependent kinase 2/cyclin E1 (Homo sapiens) (UniProt P24864+P24941); assay: Inhibition of human full length C-terminal His6-tagged Cdk2/human full length N-terminal GST-tagged Cyclin E expressed in baculovirus infected Sf21 insect cells at 1 uM after 1 hr by electromobility shift assay relative to control
[24] = target: Mitogen-activated protein kinase 3 (Homo sapiens) (UniProt P27361); assay: Inhibition of GST-tagged recombinant human full length ERK1 expressed in Escherichia coli at 1 uM relative to control
[25] = target: CDK2/Cyclin O (Homo sapiens) (UniProt P24941+P22674); assay: Inhibition of recombinant human full length N-terminal GST-tagged CDK2/Cyclin O expressed in baculovirus infected Sf9 cells at 1 uM relative to control
[26] = Volume of distribution at steady state in dog; format: ADME, Canis lupus familiaris; conditions: in vivo, read-out: Vdss
[27] = target: NUAK family SNF1-like kinase 1 (Homo sapiens) (UniProt O60285); assay: Inhibition of recombinant full length human His-tagged ARK5 expressed in baculovirus expression system at 1 uM relative to control
[28] = target: T1, Mitogen-activated protein kinase 1; remark: listed apart in the source
[29] = target: Dual specificity mitogen-activated protein kinase kinase 2 (Homo sapiens) (UniProt P36507); assay: Inhibition of recombinant full length his-tagged human MEK2 expressed in baculovirus expression system at 1 uM relative to control
[30] = target: Dual specificity mitogen-activated protein kinase kinase 1 (Homo sapiens) (UniProt Q02750); assay: Inhibition of recombinant full length His-tagged human MEK1 expressed in baculovirus expression system at 1 uM by GST-tagged full length human inactive ERK2 coupled cascade assay relative to control
[31] = target: T1, Mitogen-activated protein kinase 1; assay: Binding affinity to non-phosphorylated biotinylated ERK2 (unknown origin) by SPR analysis
[32] = target: Serine/threonine-protein kinase B-raf (Homo sapiens) (UniProt P15056); assay: Inhibition of recombinant full length GST-tagged human BRAF1 expressed in baculovirus expression system at 1 uM relative to control
[33] = Oral bioavailability in dog; format: ADME, organism-based, Canis lupus familiaris; conditions: in vivo
[34] = target: T1, Mitogen-activated protein kinase 1; assay: Inhibition of MEK U911-activated ERK2 (unknown origin) using ERKtide as substrate preincubated for 20 mins followed by substrate addition in presence of 1 mM ATP after 10 mins by rapidfire mass spectrometry analysis

T1 sequence (P28482 whole entry): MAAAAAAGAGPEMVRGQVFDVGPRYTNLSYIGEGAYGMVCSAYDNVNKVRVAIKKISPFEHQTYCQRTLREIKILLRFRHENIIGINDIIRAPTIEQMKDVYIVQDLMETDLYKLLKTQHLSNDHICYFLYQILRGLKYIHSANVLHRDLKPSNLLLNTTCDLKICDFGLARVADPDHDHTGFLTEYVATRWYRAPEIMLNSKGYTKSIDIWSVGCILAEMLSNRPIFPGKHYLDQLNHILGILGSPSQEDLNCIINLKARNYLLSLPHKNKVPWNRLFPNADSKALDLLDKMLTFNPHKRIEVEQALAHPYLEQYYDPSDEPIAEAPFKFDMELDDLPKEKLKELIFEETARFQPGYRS
Sequence of Dual specificity mitogen-activated protein kinase kinase 1 (Homo sapiens) (Q02750 whole entry): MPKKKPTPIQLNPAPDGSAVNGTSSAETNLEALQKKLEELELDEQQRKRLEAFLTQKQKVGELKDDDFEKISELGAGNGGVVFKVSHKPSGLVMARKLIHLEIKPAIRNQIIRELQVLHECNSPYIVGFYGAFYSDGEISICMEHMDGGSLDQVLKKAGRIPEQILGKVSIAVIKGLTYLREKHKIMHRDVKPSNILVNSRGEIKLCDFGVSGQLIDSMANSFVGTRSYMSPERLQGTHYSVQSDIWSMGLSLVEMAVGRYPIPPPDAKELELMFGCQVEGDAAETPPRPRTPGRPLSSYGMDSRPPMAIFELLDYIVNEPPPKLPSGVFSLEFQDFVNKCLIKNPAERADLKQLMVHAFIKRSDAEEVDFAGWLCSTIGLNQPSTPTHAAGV
Sequence of Dual specificity mitogen-activated protein kinase kinase 2 (Homo sapiens) (P36507 whole entry): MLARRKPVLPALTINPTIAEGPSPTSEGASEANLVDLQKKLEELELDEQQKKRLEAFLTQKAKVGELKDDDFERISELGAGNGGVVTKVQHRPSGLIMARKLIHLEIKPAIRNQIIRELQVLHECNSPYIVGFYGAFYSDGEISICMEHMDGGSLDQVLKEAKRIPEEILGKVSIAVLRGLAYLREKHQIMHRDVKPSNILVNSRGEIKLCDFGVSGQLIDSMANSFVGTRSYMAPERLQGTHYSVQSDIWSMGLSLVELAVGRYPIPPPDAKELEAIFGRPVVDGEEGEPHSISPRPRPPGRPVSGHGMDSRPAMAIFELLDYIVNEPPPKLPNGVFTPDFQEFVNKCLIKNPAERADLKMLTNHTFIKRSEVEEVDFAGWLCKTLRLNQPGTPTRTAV
Sequence of Cyclin-dependent kinase 5/CDK5 activator 1 (Q00535 whole entry): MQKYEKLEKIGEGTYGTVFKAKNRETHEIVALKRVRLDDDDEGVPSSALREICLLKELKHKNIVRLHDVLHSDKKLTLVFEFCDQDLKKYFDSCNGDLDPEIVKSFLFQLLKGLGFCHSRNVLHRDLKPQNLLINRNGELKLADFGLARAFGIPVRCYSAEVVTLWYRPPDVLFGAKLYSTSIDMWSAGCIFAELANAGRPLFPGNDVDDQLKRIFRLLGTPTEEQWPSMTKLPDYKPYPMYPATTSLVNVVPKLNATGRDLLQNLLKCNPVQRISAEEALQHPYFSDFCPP
Sequence of Cyclin-dependent kinase 5/CDK5 activator 1 (Q15078 whole entry, further chain): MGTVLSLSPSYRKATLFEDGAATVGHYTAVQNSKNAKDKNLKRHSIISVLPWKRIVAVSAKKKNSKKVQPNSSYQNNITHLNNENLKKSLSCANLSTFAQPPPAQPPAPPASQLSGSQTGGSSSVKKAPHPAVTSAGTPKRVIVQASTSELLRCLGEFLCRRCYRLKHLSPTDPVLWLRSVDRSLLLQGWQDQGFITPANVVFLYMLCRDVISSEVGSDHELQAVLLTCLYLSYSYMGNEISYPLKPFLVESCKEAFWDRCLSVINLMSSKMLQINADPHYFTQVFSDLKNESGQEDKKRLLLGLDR
Sequence of Cyclin-dependent kinase 5/CDK5 activator 1 (Homo sapiens) (Q00535 whole entry): as the sequence (Q00535 whole entry) above
Sequence of Cyclin-dependent kinase 5/CDK5 activator 1 (Homo sapiens) (Q15078 99-307 partner limits assumed): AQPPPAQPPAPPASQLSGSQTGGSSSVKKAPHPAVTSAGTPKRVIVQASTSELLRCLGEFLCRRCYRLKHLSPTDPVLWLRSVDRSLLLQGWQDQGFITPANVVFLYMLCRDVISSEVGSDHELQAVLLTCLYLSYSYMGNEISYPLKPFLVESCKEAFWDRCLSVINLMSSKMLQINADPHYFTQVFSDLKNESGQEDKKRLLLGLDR
Sequence of Mitogen-activated protein kinase 3 (Homo sapiens) (P27361 whole entry): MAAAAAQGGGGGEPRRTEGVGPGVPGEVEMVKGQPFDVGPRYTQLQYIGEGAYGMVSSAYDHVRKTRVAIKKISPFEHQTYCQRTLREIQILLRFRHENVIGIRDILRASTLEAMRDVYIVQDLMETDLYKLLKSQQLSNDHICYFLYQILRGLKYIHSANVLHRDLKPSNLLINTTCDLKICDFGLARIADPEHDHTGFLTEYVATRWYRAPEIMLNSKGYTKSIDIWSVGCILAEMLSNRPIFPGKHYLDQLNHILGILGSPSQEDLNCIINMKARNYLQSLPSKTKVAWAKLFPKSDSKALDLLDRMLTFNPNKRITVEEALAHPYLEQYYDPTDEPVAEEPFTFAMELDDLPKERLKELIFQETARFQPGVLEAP
Sequence of Mitogen-activated protein kinase 15 (Homo sapiens) (Q8TD08 whole entry, the tested form may be a part): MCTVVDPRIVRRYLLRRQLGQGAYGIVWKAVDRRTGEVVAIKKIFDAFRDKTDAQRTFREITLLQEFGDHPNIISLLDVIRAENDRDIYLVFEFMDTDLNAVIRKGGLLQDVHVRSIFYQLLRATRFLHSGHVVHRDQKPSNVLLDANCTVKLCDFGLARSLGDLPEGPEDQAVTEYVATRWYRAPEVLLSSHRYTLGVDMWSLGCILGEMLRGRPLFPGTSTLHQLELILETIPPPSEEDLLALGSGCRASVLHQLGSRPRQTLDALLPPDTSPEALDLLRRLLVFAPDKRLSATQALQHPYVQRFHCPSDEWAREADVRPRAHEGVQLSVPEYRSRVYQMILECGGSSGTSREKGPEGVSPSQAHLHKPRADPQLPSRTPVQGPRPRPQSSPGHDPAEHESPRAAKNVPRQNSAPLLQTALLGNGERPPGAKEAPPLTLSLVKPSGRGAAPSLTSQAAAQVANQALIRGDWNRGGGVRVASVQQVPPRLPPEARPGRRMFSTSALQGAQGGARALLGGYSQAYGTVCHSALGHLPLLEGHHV
Sequence of Voltage-gated inwardly rectifying potassium channel KCNH2 (Q12809 whole entry): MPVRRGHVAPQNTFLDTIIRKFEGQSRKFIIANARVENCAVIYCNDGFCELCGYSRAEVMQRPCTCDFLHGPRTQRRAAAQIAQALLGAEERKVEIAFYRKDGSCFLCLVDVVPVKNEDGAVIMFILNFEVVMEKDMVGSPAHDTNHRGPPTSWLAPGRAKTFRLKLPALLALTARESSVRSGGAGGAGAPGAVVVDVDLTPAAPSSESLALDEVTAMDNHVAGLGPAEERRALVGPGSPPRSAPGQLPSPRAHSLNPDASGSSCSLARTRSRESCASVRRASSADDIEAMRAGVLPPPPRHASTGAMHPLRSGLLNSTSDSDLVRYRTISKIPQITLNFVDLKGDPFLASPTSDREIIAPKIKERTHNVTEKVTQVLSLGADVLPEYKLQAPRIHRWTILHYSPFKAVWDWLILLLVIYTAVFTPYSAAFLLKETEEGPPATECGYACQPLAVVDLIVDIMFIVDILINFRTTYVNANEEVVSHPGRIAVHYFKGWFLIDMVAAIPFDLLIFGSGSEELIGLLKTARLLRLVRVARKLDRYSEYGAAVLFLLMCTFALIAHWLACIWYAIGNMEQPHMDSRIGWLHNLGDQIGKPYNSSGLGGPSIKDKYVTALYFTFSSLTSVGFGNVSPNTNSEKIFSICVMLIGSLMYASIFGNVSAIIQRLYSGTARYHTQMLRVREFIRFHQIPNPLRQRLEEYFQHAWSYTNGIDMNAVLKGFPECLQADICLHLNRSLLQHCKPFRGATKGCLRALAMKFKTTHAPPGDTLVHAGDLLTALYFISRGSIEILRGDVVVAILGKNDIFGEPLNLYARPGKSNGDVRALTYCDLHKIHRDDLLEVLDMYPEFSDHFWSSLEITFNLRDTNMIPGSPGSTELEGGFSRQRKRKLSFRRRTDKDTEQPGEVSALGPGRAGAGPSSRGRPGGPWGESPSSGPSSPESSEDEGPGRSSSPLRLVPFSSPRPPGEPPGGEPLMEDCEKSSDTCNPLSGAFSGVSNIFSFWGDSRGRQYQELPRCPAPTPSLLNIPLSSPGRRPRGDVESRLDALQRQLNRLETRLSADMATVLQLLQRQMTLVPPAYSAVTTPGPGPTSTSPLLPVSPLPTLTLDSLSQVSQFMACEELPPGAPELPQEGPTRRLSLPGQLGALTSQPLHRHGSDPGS
Sequence of Mitogen-activated protein kinase kinase kinase 8 (Homo sapiens) (P41279 whole entry, the tested form may be a part): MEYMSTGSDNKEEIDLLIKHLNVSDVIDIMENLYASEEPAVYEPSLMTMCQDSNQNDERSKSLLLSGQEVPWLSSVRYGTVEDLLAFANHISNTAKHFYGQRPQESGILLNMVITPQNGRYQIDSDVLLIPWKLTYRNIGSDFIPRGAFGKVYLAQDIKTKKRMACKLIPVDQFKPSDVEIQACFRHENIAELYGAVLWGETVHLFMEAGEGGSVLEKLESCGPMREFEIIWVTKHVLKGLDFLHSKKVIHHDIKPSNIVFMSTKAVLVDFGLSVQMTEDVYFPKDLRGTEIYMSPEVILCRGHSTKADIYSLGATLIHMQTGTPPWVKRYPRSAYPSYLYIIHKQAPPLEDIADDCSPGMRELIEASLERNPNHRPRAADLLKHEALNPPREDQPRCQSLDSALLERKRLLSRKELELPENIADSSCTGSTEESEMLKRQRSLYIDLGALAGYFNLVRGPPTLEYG

COC[C@H]1Cn2cc(-c3nc(Nc4ccnn4C)ncc3C)nc2C(=O)N1Cc1ccc(F)c(F)c1 [TIZATERKIB]
fraction unbound [1]: 0.12
Ka [2]: 8.9 ×10⁻⁵ /M/s
Kdiss [3]: 4.5 ×10⁻⁵ /s
IC50 [4]: < 0.3 nM
inhibition in vivo at 25 mg/kg (Mus musculus): 100%
inhibition [5]: inactive
IC50 [6]: 11000 nM
fraction unbound [7]: 0.44
inhibition [8]: 81%
Kd [9]: 0.0501 nM
Vd [10]: 1.5 L/kg
inhibition in vivo at 15 mg/kg (Calu-6): 93%
GI50 (A-375): 60 nM
IC50 [11]: 300 nM
T1/2 [12]: 4.62 h
bioavailability [13]: 30%
inhibition [14]: 103%
Activity (A549): 28%
inhibition [15]: 101%
IC50 [16]: 1.7 nM
fraction unbound [17]: 0.06 to 0.27
IC50 [18]: 400 nM
IC50 [19]: 5.7 nM
half-life [20]: 2.3 h
inhibition [21]: 99%
inhibition [22]: 101%
inhibition [23]: 89%
inhibition [24]: 105%
inhibition [25]: 95%
Vd [26]: 1.2 L/kg
inhibition [27]: 80%
Ka [28]: 6.5 ×10⁻⁵ /M/s
inhibition [29]: -2.2%
inhibition [30]: 104%
Kd [31]: 0.1 nM
inhibition [32]: 5.8%
bioavailability [33]: 100%
IC50 [34]: 0.66 nM
